Experimental data as given in patent publication US5688670A, “Self-modifying RNA molecules and methods of making” (The General Hospital Corporation, priority 1994, dated 1997).
Several values for one entry are separate records, joined by “and”; a condition that tells them apart may be missing. Equal entries are not always repeated.

Legend:
[1] = test system: polynucleotide kinase ribozyme Class IV (Kin.44); assay: kinetic analysis of auto-thiophosphorylation by kinase ribozyme; format: biochemical; settings: 6 ATP-γ-S concentrations
Protocol: (§1) Because the random pool initially prepared sampled sequence space very sparsely (there are between 4^100 and 10^60 possible 100-mers, but only approximately 10^16 different molecules in the pool), active molecules are likely to be sub-optimal catalysts. Accordingly, three cycles of mutagenic PCR (before selection cycles 7, 8, and 9) were performed to allow the evolution of improvements in the active molecules. Mutagenic PCR was performed as described by Bartel and Szostak (Science, 61:1411, 1993) and by Cadwell and Joyce (PCR Methods Appl., 28, 1992). Briefly, thirty total cycles of PCR were done at each round to yield - 2% mutagenesis. Reactions of pool RNAs were performed either with trace ATP-γ-^35 S, or with 100 μM ATP-γ-S plus additional trace ATP-γ-^35 S. Dithiothreitol (DTT, 10 mM) was included in the reactions. Reactions were quenched by the addition of one volume of 150 mM EDTA, 20 mM DTT in 95% formamide. Reactions were analyzed by electrophoresis on 10% polyacrylamide/8M urea gels. Quantitation was performed using a PhosphorImager (Molecular Dynamics). A known amount of ATP-γ-^35 S was spotted on the gels as a standard. The combined effect of increasing the stringency and performing mutagenic PCR was to increase the activity of the pool by nearly three orders of magnitude from cycle 6 to cycle 13 (FIG. 4).
(§2) Rates for each clone were determined (as described herein) at 6 different ATP-γ-S concentrations, ranging from 2 μM-[…].

[2] = test system: polynucleotide kinase ribozyme Class II (Kin.25); assay: as above; format: biochemical
Protocol: as §1, §2

[3] = test system: polynucleotide kinase ribozyme Class III (Kin.42); assay: as above; format: biochemical; settings: 6 ATP-γ-S concentrations
Protocol: as §1, §2

[4] = molecular target: ATP-binding RNA clone 3 (C8-ATP-3, full-length 164-nucleotide RNA); assay: binding of individual eighth-cycle clones to ATP-agarose; settings: read-out: dissociation constant (Kd)
Protocol: (§3) A chemically synthesized pool of DNA molecules containing a central region of 120 random nucleotides 5 flanked by constant regions used as primer binding sites was PCR-amplified and transcribed in vitro by T7 RNA polymerase in the presence of [α-^32 P][…]. RNA was ethanol-precipitated and unincorporated nucleotides removed by Sephadex-G50 chromatography. Following a brief incubation at 65° C. in binding buffer (300 mM NaCl, 20 Mm Tris, pH 7.6, 5 mM MgCl2), the RNA was cooled to room temperature before being loaded onto a 1-ml ATP agarose affinity column. […] After washing with 6 column-volumes of binding buffer, bound RNAs were eluted with 3 column-volumes of binding buffer containing 4 mM ATP, then concentrated by precipitation with ethanol. For the first three cycles, an agarose pre-column was used to prevent enrichment of the RNA pool with agarose-binding RNAs, and bound RNAs were eluted with 5 mM EDTA in water rather than affinity-eluted with ATP. After reverse transcription and PCR amplification, DNA templates were transcribed and the resulting RNA was used in the next round of selection. RNA from the eighth round of selection was converted to cDNA, amplified as double-stranded DNA by PCR, digested with EcoR1 and BamHl gel-purified and cloned into the phage M13 based vector pGem3Z (Promega, Madison, Wis.).
(§4) Thirty-nine clones from the eighth cycle RNA population were sequenced seventeen different sequences were found. Of these, the most abundant sequence (C8-ATP-3) occurred 14 times, and 12 sequences occurred just once. […] Clones 2, 3, 8, 15, and 19 were individually tested for binding to ATP-agarose.

[5] = molecular target: ATP-binding RNA clone 8 (C8-ATP series, eighth cycle RNA population); assay: as above; settings: read-out: dissociation constant (Kd)
Protocol: as §3, §4

[6] = molecular target: ATP-binding RNA clone 2 (C8-ATP series, eighth cycle RNA population); assay: as above; settings: read-out: dissociation constant (Kd)
Protocol: as §3, §4

[7] = molecular target: ATP-binding RNA clone 19 (C8-ATP series, eighth cycle RNA population); assay: as above; settings: read-out: dissociation constant (Kd)
Protocol: as §3, §4

[8] = test system: ATP-binding RNA clone 15 (C8-ATP-15); assay: as above
Protocol: as §3, §4

[9] = molecular target: ATP-40-1 RNA (40-nucleotide ATP aptamer); assay: isocratic elution from ATP-C8-agarose column; format: binding; settings: upper estimate, 5 mM Mg
Protocol: (§5) Isocratic elution (Arnold et al., J. Chromatography 31:1, 1986) from ATP-agarose and equilibrium gel filtration (Fersht, in Enzyme Structure and Mechanism p. 186-188, Freeman, New York, 1985) was used to measure the dissociation constant for the RNA-ATP complex on the column and in solution. […] The Kd for the ATP-agarose complex is an upper estimate, because the fraction of bound ATP that is accessible to the RNA is not known. The solution Kd for adenosine was similar to that of ATP (5-8 μM), but the Kd for dATP was not measurable (>1 mM). The Kd of ATP-40-1 for its ligand dropped to 2 μM when the Mg^+2 concentration was raised from 5 to 20 mM. Changing the base pair U18-A33 to C-G, as found in most of the clones initially selected, further decreased the Kd to 0.7 μM. At almost saturating concentrations of ATP (50 μM), the RNA bound ~0.7 equivalents of ATP. The RNA likely binds its ligands with a stoichiometry of unit.

[10] = molecular target: ATP-40-1 RNA (40-nucleotide ATP aptamer); assay: equilibrium gel filtration (solution Kd); format: binding
Protocol: as §5

[11] = molecular target: ATP-40-1 RNA variant, base pair U18-A33 changed to C-G; assay: Kd of ATP aptamer variant; format: binding; settings: further decrease after raising Mg+2 to 20 mM
Protocol: as §5

[12] = molecular target: Class III aptamer RNA (ATP aptamer region of Class III kinase ribozyme); assay: binding of kinase-class aptamer region RNA to C-8 linked ATP agarose; settings: no detectable interaction with ATP agarose
Source text: (§6) Either the right or left hand stems of the Class II, VI and VII aptamer regions appear to be missing, and it seems likely that these molecules have found novel modes of binding their substrates. Using run-off transcription of synthetic DNA oligonucleotides (Milligan and Uhlenbeck, Methods Enzymol. 180:51, 1989) the RNAs corresponding to the Class I, III, IV, and V aptamer regions were produced. The Class IV aptamer RNA binds weakly to C-8 linked ATP agarose (Sassanfar and Szostak, supra), consistent with a molecule having a Kd for ATP in the range of 0.05-0.5 mM. […] Presumably, the corresponding classes of kinases have developed novel modes of binding ATP-γ-S.

[13] = molecular target: Class I aptamer RNA (ATP aptamer region of Class I kinase ribozyme); assay: as above; settings: no detectable interaction with ATP agarose
Source text: as §6

[14] = test system: BL8-6 self-biotinylating ribozyme (SEQ ID NO: 91); assay: self-biotinylation time course; format: biochemical; settings: in the presence of 200 μM BIE
Protocol: The rate of self-biotinylation was determined by a time course experiment. ^32 P-labelled RNA was first resuspended in incubation buffer (100 mM KCl, 10 mM Na-Hepes, pH 7.4, 5 mM MgCl2) and allowed to equilibrate for 10 minutes at room temperature. 200 μM BIE was added to the mixture and aliquots were subsequently removed after 0 to 120 minutes of incubation. Samples were quenched and affinity purified as described in Haugland, Molecular Probes Handbook of Fluoprescent Probes and Research Chemicals. Aliquots were counted in a scintillation counter following ethanol precipitation (total RNA count) and following binding to streptavidin agarose (product RNA count); the ratio of these two counts is the fraction reacted. Optimizing enzymatic activity: It seemed likely that the original RNA pool from which the BL8-6 ribozyme was derived might not saturate the space of biotin-ligating ribozymes. To test the possibility that appropriate additional mutations to the BL8-6 sequence might increase its catalytic activity, a third RNA pool was generated based on its sequence but with non-wild-type nucleotides substituted at each position with 30% probability (FIG. 8D) (using methods described above). […] After eight rounds of selection (ending with a 1 minute incubation period at 10 μM BIE), active clones from the pool were sequenced and assayed for catalytic activity.

[15] = test system: BL2.8-7 self-biotinylating ribozyme (re-selected from BL8-6); assay: self-biotinylation time course; format: biochemical
Protocol: The rate of self-biotinylation was determined by a time course experiment. ^32 P-labelled RNA was first resuspended in incubation buffer (100 mM KCl, 10 mM Na-Hepes, pH 7.4, 5 mM MgCl2) and allowed to equilibrate for 10 minutes at room temperature. […] Samples were quenched and affinity purified as described in Haugland, Molecular Probes Handbook of Fluoprescent Probes and Research Chemicals. Aliquots were counted in a scintillation counter following ethanol precipitation (total RNA count) and following binding to streptavidin agarose (product RNA count); the ratio of these two counts is the fraction reacted. Optimizing enzymatic activity: It seemed likely that the original RNA pool from which the BL8-6 ribozyme was derived might not saturate the space of biotin-ligating ribozymes. […]
The background rate of guanosine alkylation by BIE was determined by two independent methods. […] To characterize the functional cores of the two molecules, we analyzed the sequences of active clones isolated from the two mutagenized RNA pools generated from the biotin aptamer and self-alkylating ribozyme sequences. […] Approximately thirty individual RNAs from each of these subcloned pools were sequenced and analyzed to determine which nucleotide positions were conserved and which pairs of nucleotides covaried to maintain Watson-Crick base pairing. […]

[16] = auto-thiophosphorylation, 6 ATP-γ-S concentrations
[17] = equilibrium gel filtration, 5 mM Mg, read-out: Kd (solution)

With Nc1ncnc2c1ncn2[C@@H]1O[C@H](COP(=O)(O)OP(=O)(O)OP(O)(O)=S)[C@@H](O)[C@H]1O [ATP-γ-S] the kcat [1] was 0.0005 ± 1.7e-05 s⁻¹, the Km [2, 16] was 41 µM and 42 µM and the kcat [2, 16] was 0.00333 ± 0.00033 s⁻¹ and 0.0055 ± 0.00033 s⁻¹. For the same compound, the kcat/Km ([2]; self-phosphorylation) was 100 M⁻¹ s⁻¹, the kcat ([2]; self-phosphorylation, approximate value) was “approximately 0.3 min^-1” and the Km [3] was 50 µM and 58 µM. For the same compound, the kcat [3] was 0.0012 ± 8.3e-05 s⁻¹ and 0.00167 ± 0.000267 s⁻¹.
For Nc1ncnc2c1ncn2[C@@H]1O[C@H](COP(=O)(O)OP(=O)(O)OP(=O)(O)O)[C@@H](O)[C@H]1O [ATP], the Kd [4] was less than 50 µM, the Kd [5] was less than 50 µM and the Kd [6] was less than 50 µM. For the same compound, the Kd [7] was less than 50 µM, the “estimated Kd” value [8] was ~ 250 μM and the Kd [9] was roughly 14 µM. The Kd ([10]; Mg+2 concentration raised from 5 to 20 mM, method not stated, read-out: Kd) was 2 µM, the Kd [10, 17] was 6 to 8 µM and the Kd [11] was 0.7 µM. The Kd [12] was greater than 500 µM and the Kd [13] was greater than 500 µM.
With O=C(CI)NCCNC(=O)CCCC[C@@H]1SC[C@@H]2NC(=O)N[C@@H]21 [BIE, N-biotinoyl-N'-iodoacetylethylenediamine] the rate of self-biotinylation [14] was 0.001 min⁻¹, the rate of self-biotinylation ([15]; in the presence of 100 μM BIE) was 0.05 min⁻¹ and the catalyzed biotinylation rate ([15]; time course experiment) was “approximately 8 s^-1 M^-1”.
Nc1ncnc2c1ncn2[C@@H]1O[C@H](CO)[C@@H](O)[C@H]1O [adenosine] was tested, and the Kd [10, 17] was 5 to 8 µM.
In the case of Nc1ncnc2c1ncn2[C@H]1C[C@H](O)[C@@H](COP(=O)(O)OP(=O)(O)OP(=O)(O)O)O1 [dATP], the Kd ([10]; not measurable, read-out: Kd (solution)) is reported as greater than 1000 µM.
